Data reported in US9802895B2, “Indole and benzimidazolecarboxamides as insecticides and acaricides” (BAYER CROPSCIENCE AKTIENGESELLSCHAFT, priority 2014, dated 2017).

Tests used:
[1] = system: adult houseflies (Musca domestica); assay: Musca domestica test (MUSCDO); format: in vivo; settings: 100 ppm, after 2 days
How it was run: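 Ten adult houseflies housed with a sponge carrying sugar solution plus compound, formulated in DMSO and diluted with water to test concentration. Mortality (%) scored after 2 days; 100% = all flies dead.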

[2] = system: caterpillars of the armyworm (Spodoptera frugiperda); assay: Spodoptera frugiperda spray test (SPODFR); format: in vivo; settings: 100 g/ha, spray, after 7 days
How it was run: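 Maize leaf discs sprayed with compound in acetone/dimethylformamide diluted in water with 1000 ppm alkylaryl polyglycol ether emulsifier, dried, then infested with armyworm caterpillars. Efficacy in % after 7 days (100% = all caterpillars killed, 0% = none).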

[3] = system: greenhouse red spider mite (Tetranychus urticae); assay: Tetranychus urticae spray test, OP-resistant (TETRUR); format: in vivo; settings: 100 g/ha, spray, after 6 days
How it was run: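 Bean (Phaseolus vulgaris) leaf discs infested with all stages of OP-resistant Tetranychus urticae were sprayed with compound in acetone/DMF diluted in water with 1000 ppm emulsifier. Efficacy was scored as % mites killed after 6 days.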

[4] = system: southern root-knot nematode (Meloidogyne incognita); assay: Meloidogyne incognita test; format: in vivo; settings: 20 ppm, after 14 days
Method: Meloidogyne incognita Test Solvent: 125.0 parts by weight of acetone To produce a suitable active compound formulation, 1 part by weight of active compound is mixed with the stated amount of solvent and the concentrate is diluted with water to the desired concentration. Vessels are filled with sand, active compound solution, an egg/larvae suspension of the southern root-knot nematode (Meloidogyne incognita) and lettuce seeds. The lettuce seeds germinate and the plants develop. The galls develop on the roots. After 14 days, the nematicidal efficacy in % is determined by the formation of galls. 100% means that no galls were found; 0% means that the number of galls on the treated plants corresponds to the untreated control.

[5] = system: L1 larvae of the Australian sheep blowfly (Lucilia cuprina); assay: Lucilia cuprina test (LUCICU); format: in vivo; settings: 100 ppm, after 2 days
How it was run: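 About 20 L1 larvae placed in vessels with minced horsemeat containing compound (DMSO formulation diluted with water to test concentration). Kill in % scored after 2 days.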

[6] = system: L2 larvae of the banded cucumber beetle (Diabrotica balteata); assay: Diabrotica balteata drench test (DIABBA); format: in vivo; settings: 20 ppm, 8 dat
Method: Diabrotica balteata—Drench Test (DIABBA) Solvent: 7 parts by weight of dimethylformamide Emulsifier: 2 parts by weight of alkylaryl polyglycol ether To produce a suitable active compound formulation, 1 part by weight of active compound is mixed with the specified amounts of solvent and emulsifier, and the concentrate is diluted with water to the desired concentration, it being necessary to include the volume of soil which is drenched in the calculation. It should be ensured that a concentration of 40 ppm of emulsifier in the soil is not exceeded. To produce further test concentrations, water is used for dilution. […] After one day, 25 L2 larvae of the banded cucumber beetle (Diabrotica balteata) are added. After 8 days, the efficacy in % is determined 100% means that all 5 plants have germinated and grown; 0% means that none of the plants has emerged.

[7] = system: engorged adult female cattle ticks (Boophilus microplus); assay: Boophilus microplus injection test (BOOPMI inj); format: in vivo; settings: assessed after 7 days
How it was run: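 1 μl of compound in DMSO is injected into the abdomen of 5 engorged females per group, which are then held in a climate-controlled room. After 7 days, egg-laying and egg fertility are scored, with unclear eggs kept about 42 days until hatch; 100% means no fertile eggs laid.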

[8] = log P by HPLC (EEC directive 79/831 Annex V.A8); format: physicochemical; settings: 43° C., acidic range pH 2.7; for log P: HPLC, reversed-phase column (C18)
How it was run: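 Measured by reversed-phase HPLC on a C18 column at 43 °C per EEC directive 79/831 Annex V.A8. Calibration used unbranched alkan-2-ones (C3–C16) of known log P.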

[9] = system: adult cat fleas (Ctenocephalides felis); assay: Ctenocephalides felis oral test (CTECFE); format: in vivo; settings: 100 ppm, oral in cattle blood, after 2 days
How it was run: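 About 20 unfed adult fleas fed through a parafilm membrane on citrated cattle blood containing compound, added from a DMSO stock and diluted to test concentration. Kill % was scored after 2 days, where 100% means all fleas dead and 0% means none.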

[10] = system: larvae of the mustard beetle (Phaedon cochleariae); assay: Phaedon cochleariae spray test (PHAECO); format: in vivo; settings: 100 g/ha, after 7 days
How it was run: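 Compound dissolved in acetone/dimethylformamide and diluted with water containing 1000 ppm alkylaryl polyglycol ether emulsifier to test concentrations. Efficacy in % scored after 7 days: 100% means all beetle larvae killed, 0% none killed.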

[11] = system: Tick nymphs (Amblyomma hebraeum); assay: Amblyomma hebraeum test (tick nymph immersion); format: in vivo; settings: 100 ppm, after 42 days
Method: Amblyomma Hebaraeum Test Solvent: dimethyl sulphoxide To produce a suitable active compound formulation, 10 mg of active compound are mixed with 0.5 ml of dimethyl sulphoxide, and the concentrate is diluted with water to the desired concentration. Tick nymphs (Amblyomma hebraeum) are placed into perforated plastic beakers and immersed in the desired concentration for one minute. The ticks are transferred on filter paper into a Petri dish and stored in a climate-controlled cabinet. After 42 days, the kill in % is determined. 100% means that all of the ticks have been killed; 0% means that none of the ticks have been killed.

[12] = system: cattle ticks (Boophilus microplus) Parkhurst strain, SP-resistant; assay: Boophilus microplus dip test; format: in vivo; settings: 20 ppm, assessed after 7 days
Method: Boophilus microplus—Dip Test
Test animals: cattle ticks (Boophilus microplus) Parkhurst strain, SP-resistant
Solvent: dimethyl sulphoxide
10 mg of active compound are dissolved in 0.5 ml of dimethyl sulphoxide. For the purpose of producing a suitable formulation, the active compound solution is diluted with water to the concentration desired in each case.
This active compound preparation is pipetted into tubes. 8-10 engorged adult female cattle ticks (Boophilus microplus) are transferred into a further tube with holes. The tube is immersed into the active compound formulation, and all the ticks are completely wetted. After the liquid has run out, the ticks are transferred on filter discs into plastic dishes and stored in a climate-controlled room.
The efficacy is assessed after 7 days by laying of fertile eggs. Eggs which are not visibly fertile are stored in a climate-controlled cabinet until the larvae hatch after about 42 days. An efficacy of 100% means that none of the ticks has laid any fertile eggs; 0% means that all the eggs are fertile.

## C#CCn1c(C(=O)NC(c2ccc(Cl)c(C(F)(F)F)c2)C(F)(F)F)cc2cc(C(=O)NC3(C(N)=S)CC3)c(Cl)cc21 (stereo not drawn) [I-19]
[1]
  efficacy (kill in %): 100%
[2]
  efficacy: 100%
[3]
  efficacy: 100%
[4]
  nematicidal efficacy (formation of galls): 90%
[5]
  efficacy (kill in %): 100%
[6]
  % efficacy: 100%
[7]
  efficacy (laying of fertile eggs): 100%
[8]
  log P: 3.73
[9]
  efficacy (kill in %): 100%
[10]
  efficacy: 100%

## CCn1c(C(=O)NC(c2ccc(F)c(C(F)(F)F)c2)C(F)(F)F)nc2cc(C(=O)NC3(C(N)=S)CC3)c(Cl)cc21 (stereo not drawn) [I-30, N5-(1-Carbamothioylcyclopropyl)-6-chloro-1-ethyl-N2-{2,2,2-trifluoro-1-[4-fluoro-3-(trifluoromethyl)phenyl]ethyl}-1H-benzimidazole-2,5-dicarboxamide]
[1]
  efficacy (kill in %): 100%
[2]
  efficacy: 100%
[3]
  efficacy: 100%
[11]
  efficacy (kill in %): 100%
[5]
  efficacy (kill in %): 100%
[12]
  efficacy (laying of fertile eggs): 100%
[7]
  efficacy (laying of fertile eggs): 100%
[8]
  log P: 3.46
[8]; reversed-phase C18 HPLC column, pH 2.7, HPLC
  chromatographic logP: 3.56
[9]
  efficacy (kill in %): 100%
[10]
  efficacy: 100%
